Reference: patent US10335504B2, “Heterocyclic molecules for biomedical imaging and therapeutic applications” (Washington University, priority 2013, dated 2019)
“Also recorded” adds a separate entry of the source. Like-named read-outs stand apart in the source and are kept apart here. Values belong to the compound of their own block, whether it stands above or below them.

What was measured:
Aβ plaques [1] = test: Staining of human AD brain tissue sections; type: binding; conditions: person with AD
Description: Staining experiments were performed with human brain tissues. Tissue samples were obtained from the frontal lobe of clinically and neuropathologically well-characterized cases. The neuropathological diagnosis of AD was based on the criteria of the Consortium to Establish a Registry for Alzheimer's Disease (CERAD) (Mirra, S., et al. The Consortium to Establish a Registry for Alzheimer's Disease (CERAD). Part II. Standardization of the neuropathologic assessment of Alzheimer's disease. Neurology 41, 479-486 (1991)) or the National Institute of Aging-Reagan Institute (NIA-RI) (Hyman, B. & Trojanowski, J. Consensus recommendations for the postmortem diagnosis of Alzheimer disease from the National Institute on Aging and the Reagan Institute Working Group on diagnostic criteria for the neuropathological assessment of Alzheimer disease. J Neuropathol Exp Neurol 56, 1095-1097. (1997)). […]
The fluorescent probe (F-AI-183) labels fibrillar amyloid (arrow). The slides were analyzed on a using a Nikon Ti-E PFS inverted microscope equipped with a Nikon 10×0.3 NA Plan APO objective, Prior H117 ProScan flat top linear encoded stage, and Prior Lumen 200PRO illumination system with standard DAPI and FITC filter sets. […] Images were processed and analyzed using the Image J software package (NIH).

Aβ plaques [2] = molecular target: T1, Aβ plaques (Homo sapiens, UniProt P05067); test: Ex vivo staining of mouse brain sections; type: binding; conditions: APPsw+/− mice, 24 months old
T1 construct: from tissue; host or cells: brain of APPsw+/-/PS1 (and APPsw+/-) transgenic mice: sections ex vivo, and live animals for multiphoton imaging
T1 sequence (P05067 672-713 limits assumed): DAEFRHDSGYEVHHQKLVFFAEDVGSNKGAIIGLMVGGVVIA
Description: FIG. 2 illustrates ex vivo staining studies were performed on brain sections (50 μm) of an APPsw^+/−/PS1 mouse (24 months old) and a control WT mouse (BL/6; 24 months old) using well-established procedures. Briefly, tissue sections were immunostained with mouse monoclonal antibody and visualized by donkey-anti-mouse HJ3.4 Aβ monoclonal antibody-Alexa 568 as a positive control. […] By comparison, no staining in WT mice was seen either with F-AI-182 or the antibody indicating the targeting specificity of F-AI-182. The slides were analyzed on a Zeiss LSM 5 PASCAL confocal system coupled to a Zeiss Axiovert 200 microscope.
The slides were analyzed using a Nikon Ti-E PFS inverted microscope equipped with a Nikon 10x 0.3 NA Plan APO objective, Prior H117 ProScan flat top linear encoded stage, and Prior Lumen 200PRO illumination system with standard DAPI and FITC filter sets. The images were acquired using a Photometrics CoolSNAP HQ2 digital camera and MetaMorph microscopy automaton, and imaging software. Images were processed and analyzed using the Image J software package (NIH).

preformed Aβ1-42 fibrils = molecular target: T2, preformed Aβ1-42 fibrils (Homo sapiens, UniProt P05067); test: Binding assay with preformed Aβ1-42 fibrils/aggregates in PBS (fluorescence)
T2 construct: preformed Aβ1-42 fibrils
T2 sequence (P05067 672-713 limits assumed): as above
Description: In some embodiments of the present teachings, binding assays to preformed fibrils or AD brain homogenate extracts can be performed using literature procedures (Klunk, W., et al. Uncharged thioflavin-T derivatives bind to amyloid-beta protein with high affinity and readily enter the brain. Life Sci 69, 1471-1484 (2001); Zhen, W., et al. Synthesis and amyloid binding properties of rhenium complexes: preliminary progress towards a reagent for SPECT imaging of Alzheimer's disease brain. J Med Chem 42, 2805-2815 (1999)). Prior to binding assays, the stock solution (2 μM) can be thawed. To aliquots of this stock solution, ^18F-AI-182 (also exemplified for either ^18F-AI-183 or ^18F-AI-187) can be added at various concentrations to a final concentration of 200 nM Aβ fibrils or 200 μL of AD brain extracts (20-25 μg). The aggregate-bound ^18F-AI-182 (or other analogues) can be collected on Whatman GF filters using Brandon M-24R cell harvester, washed, and counted in a γ-counter (Perkin Elmer). Inhibition constants (Ki) can be calculated as described previously (Han, H., Cho, C. & Lansbury, P. J. Technetium complexes for quantification of brain amyloid. J Am Chem Soc 118, 4506-4508 (1996)). Binding assay results can assist in evaluation of target specificity.
Binding assays of F-AI-182 with preformed Aβ1-42 aggregates were performed in PBS. […] Fluorescence was not observed using Aβ aggregates alone in PBS upon excitation at 410 nm (a negative control). […] Comparative analyses can be performed with other compounds such as AV-45, BAYER 94-9172, and AZD4694. An agent can be interacting with either of the two modestly high affinity binding sites (BS1& BS2) or recognizing an entirely new site on Aβ1-42. F-AI-182 can register different complementary binding sites in relation to Aβ-pathophysiology compared to current agents.

BS1 and BS3 sites = conditions: cited from earlier work
[3] = cited from earlier work
[4] = cited from earlier work; remark: listed apart in the source
[5] = Biodistribution study in normal FVB mice; type: in vivo, mouse; conditions: for tissue uptake at 5 min / tissue uptake at 120 min: mouse, intravenous
Description: In various configurations, agents can be evaluated in part by exploring the tissue distribution and kinetics of ^18F-AI-182 or other agents in normal mice and transgenic mice. Because these heterocyclic molecules can be labeled with ^18F using the methods described herein, biodistribution in normal mice can be determined. In such investigations, BL/6 (control mice; Taconic) or APPsw^+/−/PS1 (transgenic, Taconic) mice can be anesthetized by isoflurane inhalation and injected with ^18F-AI-182 or other agents (20 μCi in 50-100 μl saline) via bolus injection through a tail vein. Animals can be sacrificed by cervical dislocation at 2, 30, 60, and 120 min post-injection (n=2-4) and data can be quantified into % ID/g as described (Sivapackiam, J., et al. Synthesis, molecular structure, and validation of metalloprobes for assessment of MDR1 P-glycoprotein-mediated functional transport. Dalton Trans 39, 5842-5850 (2010)). The brains can be removed and dissected into cerebellums and remaining whole brain fractions prior to weighing and counting to evaluate regional differences in the location of radiotracer in comparison with transgenic mice.
For in vivo imaging of Aβ plaques, the basic pharmacokinetic model in an unaffected normal brain involves high initial penetration of the agent, followed by rapid clearance due to lack of a binding target. However, in AD brains, high initial penetration can be followed by regional retention as the agent binds to Aβ thus leading to differential kinetics. To accomplish this objective, biodistribution studies of ^18F-AI-182 were performed in normal FVB mice for assessment of signal to noise ratios and clearance profiles. Brain uptake of ^18F-AI-182 was analyzed in terms of percent injected dose per gram of the brain tissue (% ID/g). […] This initial brain uptake value (5 min) in normal mice is approximately 15-fold high compared with our Aβ-targeted ^99mTc-Peptides (Harpstrite, S. E., Prior, J., Binz, K., Piwnica-Worms, D. & Sharma, V. ^99mTc-Peptide conjugates for imaging β-amyloid in the brain. ACS Med Chem Lett (2013) under review). […] Net brain uptake of ^18F-AI-182 is 1.2-fold higher than that of ^18F-AV-45. The initial data point for ^18F-AI-182 is at 5 min compared with 2 min for ^18F-AV-45.

Stability in human serum = type: in vitro ADME
Description: In various configurations, identified heterocyclic molecules can be assessed for metabolic stability for use in biomedical imaging applications both in vitro and in vivo using established procedures (e.g., Mathis, C., et al. Synthesis and evaluation of ^11C-labeled 6-substituted 2-arylbenzothiazoles as amyloid imaging agents. J. Med. Chem. 46, 2740-2754 (2003); Sharma, V. Radiopharmaceuticals for assessment of multidrug resistance P-glycoprotein-mediated transport activity. Bioconjug. Chem. 15, 1464-1474 (2004)). In some embodiments, ^18F-AI-182, another agent, or a combination thereof can be incubated in either serum or human serum albumin at time points corresponding to uptake in vivo (5 min to 2 h) and filtered through filters (30 kDa). Free and bound radiotracer can be calculated using previously describe methods (Bartholoma, M. D., et al. Effect of the prosthetic group on the pharmacologic properties of ^18F-labeled rhodamine B, a potential myocardial perfusion agent for positron emission tomography (PET). J Med Chem 55, 11004-11012 (2012)), and can be analyzed by radio-TLC scanner and radio-HPLC. […] Brain tissues, liver, and kidney can be removed (liver and kidney can be used to evaluate their metabolic stability in more stringent in vivo environments), sonicated, extracted and analyzed through radio-TLC and -HPLC.

[6] = cited from earlier work; for brain uptake: normal mice
[7] = Literature biodistribution in normal mice (Choi et al. 2009); type: in vivo, mouse

SMILES: CN(C)c1ccc(/C=C/c2nc3cc(OCCF)ccc3[se]2)cn1 [F-AI-183]
- detection of Aβ plaques in human AD brain cross-sections of frontal lobe (Aβ plaques [1]): detection of compact Aβ plaques; also recorded: detected compact Aβ plaques
- staining of brain tissue sections (Aβ plaques [2]): labeling of Aβ plaques
- Kd (preformed Aβ1-42 fibrils): 17 nM

SMILES: CN(C)c1ncc(/C=C/c2nc3cc(OCCF)ccc3[se]2)cn1 [F-AI-187]
- Kd (preformed Aβ1-42 fibrils): 1.58 nM

SMILES: CC(=C(C#N)C#N)c1ccc2cc(N(C)CC[18F])ccc2c1 [FDDNP, 2-(1-(6-[(2-[18F]fluoroethyl)(methyl)amino]-2-naphthyl)ethylidene)malononitrile]
- affinity for BS1 and BS3 sites (BS1 and BS3 sites): low affinity

SMILES: [11CH3]Nc1ccc(/C=C/c2ccc(O)cc2)cc1 [SB-13, [^11C]4-N-methylamino-4′-hydroxystilbene]
- biological half-life in serum [3]: low

SMILES: [11CH3]Nc1ccc(-c2nc3ccc(O)cc3s2)cc1 [^11C-PIB, 2-[p-(Methylamino)phenyl]-3-thia-1-aza-5-indanol]
- metabolism in vivo [4]: facile metabolism

- tissue uptake at 5 min ([5]; FVB, kidney, normal mice, 5 min, read-out: kidney uptake): 6.76 ± 1.57 %ID/g
- tissue uptake at 120 min ([5]; FVB, kidney, normal mice, 120 min, read-out: kidney uptake): 1.57 ± 0.08 %ID/g
- tissue uptake at 5 min ([5]; FVB, liver, normal mice, 5 min, read-out: liver uptake): 16.3 ± 1.41 %ID/g
- tissue uptake at 120 min ([5]; FVB, liver, normal mice, 120 min, read-out: liver uptake): 2.71 ± 0.21 %ID/g
- tissue uptake at 5 min ([5]; brain, normal FVB mice, 5 min post tail-vein injection, read-out: brain uptake): 7.28 ± 0.46 %ID/g
- tissue uptake at 120 min ([5]; brain, normal FVB mice, 120 min post tail-vein injection, read-out: brain uptake): 1.54 ± 0.06 %ID/g
- 5 min/120 min brain clearance ratio ([5]; normal mice): 4.73
- initial brain uptake (5 min) compared with Aβ-targeted 99mTc-Peptides ([5]; normal mice): approximately 15 fold
- net brain uptake relative to 18F-AV-45 ([5]; normal mice): 1.2 fold
- blood clearance faster than 18F-AV-45 ([5]; normal mice, 5 min to 120 min): 25%
- metabolism in human serum (Stability in human serum; human serum): non-metabolized
- time until which non-metabolized in human serum (Stability in human serum; investigated highest time-point): about 30 min
SMILES: CN(C)c1ccc(/C=C/c2nc3ccc(OCC[18F])cc3s2)cn1 [^18F-AI-182]
- penetration of brain / blood-brain barrier ([5]; mice): facile penetration of the blood-brain barrier (BBB)

- 2 min/120 min brain clearance ratio [7]: 4.07
SMILES: CNc1ccc(/C=C/c2ccc(OCCOCCOCC[18F])nc2)cc1 [^18F-AV-45]
- kidney uptake ([6]; 2 min): 14.19±2.34 % ID/g
- kidney uptake ([6]; 120 min): 2.19±0.36 % ID/g
- liver uptake ([6]; 120 min): 4.96±0.90 % ID/g
- brain uptake ([6]; 2 min post-injection): 7.33±1.54 % ID/g
- brain uptake ([6]; 120 min post-injection): 1.80±0.07 % ID/g
- metabolism in vivo [4]: facile metabolism
- biological half-life in serum [3]: low
